# Results taken from ChEMBL document CHEMBL1201862, “PubChem BioAssay data set” (2004).
#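 Assay format: 96-well plates, 48-hour exposure. GI50 = concentration required for 50% inhibition of growth.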 Activity calls are given as the source filed them. Rule as the data show it: active = GI50 up to about 1.1 µM and inactive = higher.
# How the values were obtained:
# Assay in all cases: growth of human tumour cells (NCI), 48 h
# [1] = test system: SN12C
# [2] = test system: RPMI-8226
# [3] = test system: MOLT-4
# [4] = test system: A498
# [5] = test system: EKVX
# [6] = test system: IGROV-1
# [7] = test system: HCC 2998
# [8] = test system: DU-145
# [9] = test system: UO-31
# [10] = test system: NCI-H23
# [11] = test system: LOX IMVI
# [12] = test system: HT-29
# [13] = test system: MDA-MB-435
# [14] = test system: SF-268
# [15] = test system: ACHN
# [16] = test system: HL-60
# [17] = test system: OVCAR-4
# [18] = test system: COLO 205
# [19] = test system: OVCAR-8
# [20] = test system: OVCAR-3
# [21] = test system: SW-620
# [22] = test system: CAKI-1
# [23] = test system: OVCAR-5
# [24] = test system: A549
# [25] = test system: MCF7
# [26] = test system: SK-MEL-28
# [27] = test system: NCI-H226
# [28] = test system: SF-539
# [29] = test system: MDA-N
# [30] = test system: HOP-92
# [31] = test system: SNB-75
# [32] = test system: BT-549
# [33] = test system: HCT-15
# [34] = test system: NCI-H522
# [35] = test system: Hs-578T
# [36] = test system: UACC-62
# [37] = test system: NCI-H460
# [38] = test system: NCI/ADR-RES
# [39] = test system: SK-OV-3
# [40] = test system: PC-3
# [41] = test system: UACC-257
# [42] = test system: U-251
# [43] = test system: TK-10
# [44] = test system: HCT-116
# [45] = test system: T47D
# [46] = test system: SF-295
# [47] = test system: KM12
# [48] = test system: CCRF-CEM
# [49] = test system: M14
# [50] = test system: MDA-MB-231
# [51] = test system: SK-MEL-5
# [52] = test system: SNB-19
# [53] = test system: Malme-3M
# [54] = test system: SK-MEL-2
# [55] = test system: K562
# [56] = test system: 786-0
# [57] = test system: RXF 393
# [58] = test system: HOP-62
# [59] = test system: SR
structure (smiles),measurement,setting,value
CC[C@@H]1C[C@@H](O)[C@@H]2[C@H](O)[C@H](O)CN2C1,GI50,[1],> 100 µM (inactive)
same,GI50,[2],> 100 µM (inactive)
same,GI50,[3],> 100 µM (inactive)
same,GI50,[4],> 100 µM (inactive)
same,GI50,[5],> 100 µM (inactive)
same,GI50,[6],> 100 µM (inactive)
same,GI50,[7],> 100 µM (inactive)
same,GI50,[8],> 100 µM (inactive)
same,GI50,[9],> 100 µM (inactive)
same,GI50,[10],> 100 µM (inactive)
same,GI50,[11],> 100 µM (inactive)
same,GI50,[12],> 100 µM (inactive)
same,GI50,[13],> 100 µM (inactive)
same,GI50,[14],> 100 µM (inactive)
same,GI50,[15],> 100 µM (inactive)
same,GI50,[16],> 100 µM (inactive)
same,GI50,[17],> 100 µM (inactive)
same,GI50,[18],> 100 µM (inactive)
same,GI50,[19],> 100 µM (inactive)
same,GI50,[20],> 100 µM (inactive)
same,GI50,[21],> 100 µM (inactive)
same,GI50,[22],> 100 µM (inactive)
same,GI50,[23],> 100 µM (inactive)
same,GI50,[24],> 100 µM (inactive)
same,GI50,[25],> 100 µM (inactive)
same,GI50,[26],> 100 µM (inactive)
same,GI50,[27],> 100 µM (inactive)
same,GI50,[28],> 100 µM (inactive)
same,GI50,[29],> 100 µM (inactive)
same,GI50,[30],> 100 µM (inactive)
same,GI50,[31],22.3 µM (inactive)
same,GI50,[32],> 100 µM (inactive)
same,GI50,[33],> 100 µM
same,GI50,[34],> 100 µM (inactive)
same,GI50,[35],> 100 µM (inactive)
same,GI50,[36],> 100 µM (inactive)
same,GI50,[37],> 100 µM (inactive)
same,GI50,[38],> 100 µM (inactive)
same,GI50,[39],> 100 µM (inactive)
same,GI50,[40],> 100 µM (inactive)
same,GI50,[41],> 100 µM (inactive)
same,GI50,[42],> 100 µM (inactive)
same,GI50,[43],> 100 µM (inactive)
same,GI50,[44],> 100 µM (inactive)
same,GI50,[45],> 100 µM (inactive)
same,GI50,[46],> 100 µM (inactive)
same,GI50,[47],> 100 µM (inactive)
same,GI50,[48],> 100 µM (inactive)
same,GI50,[49],> 100 µM (inactive)
same,GI50,[50],> 100 µM (inactive)
same,GI50,[51],> 100 µM (inactive)
same,GI50,[52],> 100 µM (inactive)
same,GI50,[53],> 100 µM (inactive)
same,GI50,[54],> 100 µM (inactive)
same,GI50,[55],> 100 µM (inactive)
same,GI50,[56],> 100 µM (inactive)
Nc1ccc2nc3ccc(=O)cc-3n(-c3ccccc3)c2c1,GI50,[1],> 100 µM (inactive)
same,GI50,[2],39.5 µM (inactive)
same,GI50,[57],59.8 µM (inactive)
same,GI50,[3],> 100 µM (inactive)
same,GI50,[4],32.8 µM (inactive)
same,GI50,[5],> 100 µM (inactive)
same,GI50,[6],45.5 µM (inactive)
same,GI50,[7],> 100 µM (inactive)
same,GI50,[8],> 100 µM (inactive)
same,GI50,[9],78.9 µM (inactive)
same,GI50,[10],> 100 µM (inactive)
same,GI50,[12],> 100 µM (inactive)
same,GI50,[13],66.7 µM (inactive)
same,GI50,[14],58.2 µM (inactive)
same,GI50,[15],> 100 µM (inactive)
same,GI50,[16],59 µM (inactive)
same,GI50,[17],> 100 µM (inactive)
same,GI50,[18],41 µM (inactive)
same,GI50,[19],> 100 µM (inactive)
same,GI50,[20],31.8 µM (inactive)
same,GI50,[21],> 100 µM (inactive)
same,GI50,[23],> 100 µM (inactive)
same,GI50,[24],> 100 µM (inactive)
same,GI50,[25],93.3 µM (inactive)
same,GI50,[58],30.5 µM (inactive)
same,GI50,[26],> 100 µM (inactive)
same,GI50,[27],67.9 µM (inactive)
same,GI50,[28],31.6 µM (inactive)
same,GI50,[29],> 100 µM (inactive)
same,GI50,[30],> 100 µM (inactive)
same,GI50,[31],28.2 µM (inactive)
same,GI50,[32],73.8 µM (inactive)
same,GI50,[33],> 100 µM
same,GI50,[34],38.1 µM (inactive)
same,GI50,[35],75.9 µM (inactive)
same,GI50,[36],> 100 µM (inactive)
same,GI50,[37],> 100 µM (inactive)
same,GI50,[38],> 100 µM (inactive)
same,GI50,[39],> 100 µM (inactive)
same,GI50,[40],91.4 µM (inactive)
same,GI50,[42],86.3 µM (inactive)
same,GI50,[44],34.4 µM (inactive)
same,GI50,[45],> 100 µM (inactive)
same,GI50,[46],> 100 µM (inactive)
same,GI50,[47],7.18 µM (inactive)
same,GI50,[48],62.8 µM (inactive)
same,GI50,[49],> 100 µM (inactive)
same,GI50,[50],38.7 µM (inactive)
same,GI50,[51],> 100 µM (inactive)
same,GI50,[52],> 100 µM (inactive)
same,GI50,[53],> 100 µM (inactive)
same,GI50,[54],> 100 µM (inactive)
same,GI50,[55],> 100 µM (inactive)
same,GI50,[56],35.8 µM (inactive)
COc1nc(=O)n(C2CC(N=[N+]=[N-])C(CO)O2)cc1C (stereo unspecified),GI50,[1],> 100 µM (inactive)
same,GI50,[59],> 100 µM (inactive)
same,GI50,[3],> 100 µM (inactive)
same,GI50,[5],> 100 µM (inactive)
same,GI50,[6],> 100 µM (inactive)
same,GI50,[8],> 100 µM (inactive)
same,GI50,[9],52 µM (inactive)
same,GI50,[10],> 100 µM (inactive)
same,GI50,[11],> 100 µM (inactive)
same,GI50,[12],> 100 µM (inactive)
same,GI50,[13],> 100 µM (inactive)
same,GI50,[14],> 100 µM (inactive)
same,GI50,[15],> 100 µM (inactive)
same,GI50,[16],> 100 µM (inactive)
same,GI50,[17],> 100 µM (inactive)
same,GI50,[19],> 100 µM (inactive)
same,GI50,[20],> 100 µM (inactive)
same,GI50,[21],> 100 µM (inactive)
same,GI50,[23],> 100 µM (inactive)
same,GI50,[24],> 100 µM (inactive)
same,GI50,[25],> 100 µM (inactive)
same,GI50,[58],> 100 µM (inactive)
same,GI50,[26],> 100 µM (inactive)
same,GI50,[27],> 100 µM (inactive)
same,GI50,[28],> 100 µM (inactive)
same,GI50,[29],> 100 µM (inactive)
same,GI50,[30],> 100 µM (inactive)
same,GI50,[32],> 100 µM (inactive)
same,GI50,[33],> 100 µM
same,GI50,[34],> 100 µM (inactive)
same,GI50,[35],> 100 µM (inactive)
same,GI50,[36],> 100 µM (inactive)
same,GI50,[37],> 100 µM (inactive)
same,GI50,[38],> 100 µM (inactive)
same,GI50,[40],> 100 µM (inactive)
same,GI50,[41],> 100 µM (inactive)
same,GI50,[42],> 100 µM (inactive)
same,GI50,[43],> 100 µM (inactive)
same,GI50,[44],> 100 µM (inactive)
same,GI50,[45],> 100 µM (inactive)
same,GI50,[46],> 100 µM (inactive)
same,GI50,[47],> 100 µM (inactive)
same,GI50,[48],> 100 µM (inactive)
same,GI50,[49],> 100 µM (inactive)
same,GI50,[50],> 100 µM (inactive)
same,GI50,[51],> 100 µM (inactive)
same,GI50,[52],> 100 µM (inactive)
same,GI50,[53],> 100 µM (inactive)
same,GI50,[54],> 100 µM (inactive)
same,GI50,[55],> 100 µM (inactive)
same,GI50,[56],> 100 µM (inactive)
